Data published in patent publication US20220306623A1, “PYRIDYL OR PYRIMIDYL MTOR KINASE INHIBITORS” (GLAXOSMITHKLINE INTELLECTUAL PROPERTY DEVELOPMENT LIMITED, priority 2019, published 2022).

How the values were obtained:
[1] = test system: type I collagen deposition in primary lung fibroblasts derived from human tissue; assay: High throughput type I collagen deposition (scar-in-a-jar) high content screening assay; assay type: cell-based; conditions: Primary lung fibroblast, 72 h, human pulmonary fibroblasts, 384-well, TGF-β 1 ng/ml 72 h, total collagen area, read-out: mean pIC50, high throughput type I collagen deposition (scar-in-a-jar) (converted)
Method: Highthroughput, cellular type I collagen deposition was measured by adapting a published method; scar-in-a-jar (Chen et al., 2009) to primary lung fibroblasts derived from human tissue and combining with high content analysis to permit fluorescent quantification of collagen deposited in the extracellular matrix (ECM). The human biological samples were sourced ethically and their research use was in accordance with the terms of the informed consents.
Test compounds were dissolved in 100% DMSO to give 10 mM (stocks) and further diluted to give half log dilutions to generate an 11 point concentration response curve. 1 ul was transferred to 384-well plates (Greiner Group, Kremsmunster, Austria, Catalogue No Greine 781280r).
Human pulmonary fibroblasts were maintained in DMEM media (Gibco, Catalogue No 21969) supplemented with 4 mM L-glutamine (Gibco Catalogue No 25030-024) and 10% heat inactivated FBS (Gibco, Catalogue No 10099-141) at 37° C. in 10% CO2. Cells were harvested and resuspended at 4×10^6 cells/ml in a T175 cell culture flask (BD Falcom, Catalogue No: 353112) containing 50 mL of culture media. After 4 days 37° C. in 10% CO2, cells were harvested and seeded at 4000 cells per well ([…]) into 384-well plates (BD Falcon, Catalogue No 353962Greiner) in assay media (0.4% heat inactivated FBS, 4 mM L-glutamine). Plates were sealed with breathable seals (Sigma, Catalogue No. BEM-1). Assay plates were incubated for 72 h at 37° C. in 10% CO2.
Assay media was supplemented with 112.5 mg/ml Ficoll 70 (Sigma, Catalogue No F2878), 75 mg/ml Ficoll 400 (Sigma, Catalogue No F4375) and 50 µg/ml ascorbic acid (Sigma, Catalogue No A8960). 30 μL assay media were added to 1 l compound ([…] compound concentration in 1% DMSO). Diluted compounds (10 μL) were transferred to plates containing cells and incubated for 3 h at 37° C. in 10% CO2. Transforming growth factor (TGF)-β (R&D systems, Catalogue No 100-B/CF) was reconstituted to give 10 µg/mL (stock) and further diluted in assay media containing Ficoll and ascorbic acid (1 in 3333). TGF-β was added to cell plates (1 ng/ml final) and cells incubated for 72 h at 37° C. in 10% CO2.
Media was aspirated from cells and 30 µL/well 100% ice-cold methanol added and incubated at RT for 5 min to fix cells. Methanol was aspirated and cells washed with PBS (3×). To block and permeabilise, cells were incubated with PBS containing 1% BSA and 0.1% Triton X 100 for 20 min, followed by PBS wash (3×). Cells were incubated with mouse anti human type I collagen monoclonal antibody (Sigma, Catalogue No C2456) diluted 1:1000 in PBS for 24 h at 4° C. Cells were washed with PBS containing 0.1% Tween-20 (3×) and incubated with secondary alexa fluor 488 goat-anti-mouse antibody (Invitrogen, Catalogue No A11001, 1 in 500 in PBS) and Hoechst 33342 (Sigma, Catalogue No H21492), 1 in 1000 in PBS) for 1 h at RT, prior to washing with PBS containing 0.1% Tween (×4).
Type I collagen immunoreactivity was detected using the INCell 2000 Analyzer (GE Healthcare, INcell 2000) set to excitation and emission wavelengths for DAPI and FITC with laser focus and exposure adjusted to appropriate levels. Images were imported and analysed using Columbus software (Perkin Elmer) and computational algorithms to quantify “total collagen area” and “cell count”.
Data analysis was performed by determining 0/inhibition values for test compounds relative to the minimum (media only) and maximum responses (TGF-βstimulation) with non-linear regression analysis to determine IC50 values for test compounds.

[2] = target: T1, mTOR (Homo sapiens, UniProt P42345); assay: mTOR kinobeads competition-binding assay; conditions: HuT-78 cell lysate, bead-immobilized capturing ligand, 2 h at 4° C., mean of multiple experiments; read-out: mean pIC50, mTOR kinobeads assay (converted)
T1 construct: capturing of endogenously expressed target proteins from cell extracts by a bead-immobilized capturing ligand; endogenous in cells; host or cells: HuT-78 cells (ECACC 88041901), cell lysate
Method: The affinity of test compounds for mTOR was determined in the mTOR kinobeads assay. This is a competition-binding assay based on the capturing of endogenously expressed target proteins from cell extracts by a bead-immobilized capturing ligand in the presence of the test compound.
HuT-78 cells (European Collection of Authenticated Cell Cultures, 88041901) were cultured according to vendor's instructions. Frozen cell pellets were homogenized in 3× pellet volumes lysis buffer (50 mM Tris-HCl, 0.4% (v/v) Igepal-CA630, 5% glycerol, 150 mM NaCl, 1.5 mM MgCl2, 25 mM NaF, 1 mM sodium vanadate, 1 mM DTT, pH 7.5, supplemented with EDTA-free protease inhibitor tablet (Roche)). The sample was dispersed using a Dounce homogenizer, kept rotating for 30 min at 4° C., and centrifuged for 10 min at 20000 gat 4° C. The supernatant was centrifuged again for 1 h at 145 000 g. The protein concentration was determined by Bradford assay (BioRad), aliquots were snap frozen in liquid nitrogen and stored at −80° C.
The capturing matrices were generated by derivatizing N-hydroxysuccinimide (NHS) activated Sepharose 4 beads (GE Healthcare) with the functionalized ligands Compound A and Compound C at a ligand density of 5 mM. Remaining NHS-groups were blocked with ethanolamine.
For the mTOR kinobeads assay the matrices were combined in a 1:1 ratio and equilibrated in DP buffer (50 mM Tris-HCl (pH 7.5), 0.4% (v/v) Igepal-CA630, 5% (v/v) glycerol, 150 mM NaCl, 1.5 mM MgCl2, 25 mM NaF, 1 mM Na3VO4, 1 mM dithiothreitol). All steps of the mTOR kinobeads assay were performed at 4° C. or on ice. The cell lysate was diluted with DP buffer to a final concentration of 5 mg/ml and a final detergent concentration of 0.4% (v/v) Igepal-CA630. For the assay 250 μg cell lysate and 2.5 μl capturing matrix per well (final assay volume: 75 μl) were incubated in the presence of test compounds in a 384-well filter plate (MultiScreenHTS HV Filter Plate, 0.45 μm, MZHVNOW50, Merck Millipore). Each plate contained 16 positive (100 μM Compound B) and 16 negative (2% v/v DMSO) control wells. Compounds were tested in a concentration-response applying 1:3 or 1:4 dilution steps for in total 11 data points. DMSO concentration was 2% (v/v). After 2 h incubation on an overhead shaker (Roto-Shake Genie, Scientific Industries Inc.) at 4° C. the non-bound fraction was removed by washing the beads with DP buffer. Proteins retained on the beads were eluted in SDS sample buffer (200 mM Tris (pH 7.4), 250 mM Trizma Base, 4% (w/v) SDS, 20% (v/v) glycerol, 0.01% (w/v) bromophenol blue, 50 mM dithiothreitol) into a collection plate (384 well polypropylene microplate, V-shape, Greiner, 781 280). Eluates were spotted on nitrocellulose membranes (400 nl per spot) using an automated pin-tool liquid transfer (Biomek FX, Beckman). After drying, the membranes were rehydrated in 20% (v/v) ethanol and blocked by incubation with Odyssey blocking buffer (LICOR, 927-40000) for 1 h at room temperature. Blocked membranes were incubated overnight at 25° C. with Odyssey blocking buffer supplemented with a specific anti-mTOR antibody (Cell Signaling, 2972; 1:500) and 0.4% TWEEN-20. Then the membranes were washed in PBST buffer and incubated for 60 minutes at room temperature with the detection antibody (IRDye™ labelled antibody from LI-COR) diluted in Odyssey blocking buffer (LICOR 927-40000) containing 0.2% TWEEN-20. Then the membranes were washed with PBST and finally rinsed twice with PBS buffer to remove residual Tween-20. The membranes were then scanned with the Odyssey® Infrared Imaging System (LI-COR Biosciences). Fluorescence signals were recorded and analyzed according to the instructions of the manufacturer. Concentration response curves were computed with the software Activity Base. All data were normalized to the mean of 16 high (negative control) and 16 low (positive control) control wells on each plate. […]

IC50 [2] | SMILES | IC50 [1]
– | CC[C@H]1COCCN1c1cc(C2(S(C)(=O)=O)CCN(C)CC2)cc(-c2ccc3[nH]c(CO)cc3n2)n1 [Example 20, (S)-(5-(6-(3-ethylmorpholino)-4-(1-methyl-4-(methylsulfonyl)piperidin-4-yl)pyridin-2-yl)-1H-pyrrolo[3,2-b]pyridin-2-yl)methanol] | 20 to 3160 nM
≤ 0.2 nM | CC[C@H]1COCC(=O)N1c1cc(CS(C)(=O)=O)nc(-c2ccc3[nH]c(CO)cc3n2)n1 [Example 5, (5S)-5-ethyl-4-{2-[2-(hydroxymethyl)-1H-pyrrolo[3,2-b]pyridin-5-yl]-6-(methanesulfonylmethyl)pyrimidin-4-yl}morpholin-3-one] | 20 to 3160 nM
≤ 0.316 nM | CC[C@H]1COCCN1c1cc(CS(C)(=O)=O)nc(-c2ccc3[nH]c(C)cc3n2)n1 [Example 12, (3S)-3-ethyl-4-[6-(methanesulfonylmethyl)-2-{2-methyl-1H-pyrrolo[3,2-b]pyridin-5-yl}pyrimidin-4-yl]morpholine] | 20 to 3160 nM
– | CC[C@H]1COCCN1c1cc(C2(S(C)(=O)=O)CCN(C)CC2)cc(-c2ccc3[nH]c(C)cc3n2)n1 [Example 19, (S)-3-ethyl-4-(6-(2-methyl-1H-pyrrolo[3,2-b]pyridin-5-yl)-4-(1-methyl-4-(methylsulfonyl)piperidin-4-yl)pyridin-2-yl)morpholine] | 20 to 3160 nM
≤ 1.26 nM | CC[C@H]1COCC(=O)N1c1cc(CS(=O)(=O)N(C)C)cc(-c2ccc3[nH]c(CO)cc3n2)n1 [Example 29, (S)-1-(2-(3-ethyl-5-oxomorpholino)-6-(2-(hydroxymethyl)-1H-pyrrolo[3,2-b]pyridin-5-yl)pyridin-4-yl)-N,Ndimethylmethanesulfonamide] | 20 to 3160 nM
– | CC[C@H]1COCC(=O)N1c1cc(CS(C)(=O)=O)cc(-c2ccc3[nH]c(CNC)cc3n2)n1 [Example 28, (S)-5-ethyl-4-(6-(2-((methylamino)methyl)-1H-pyrrolo[3,2-b]pyridin-5-yl)-4-((methylsulfonyl)methyl)pyridin-2-yl)morpholin-3-one] | 20 to 3160 nM
– | CC[C@H]1COCC(=O)N1c1cc(CS(=O)(=O)N(C)C)cc(-c2ccc3[nH]c(CNC)cc3n2)n1 [Example 7, (S)-1-(2-(3-ethyl-5-oxomorpholino)-6-(2-((methylamino)methyl)-1H-pyrrolo[3,2-b]pyridin-5-yl)pyridin-4-yl)-N,N-dimethylmethanesulfonamide] | 20 to 3160 nM
– | CC[C@H]1COCCN1c1cc(C2(S(C)(=O)=O)CCNCC2)nc(-c2ccc3[nH]c(C)cc3n2)n1 [Example 17, (3S)-3-ethyl-4-[6-(4-methanesulfonylpiperidin-4-yl)-2-{2-methyl-1H-pyrrolo[3,2-b]pyridin-5-yl}pyrimidin-4-yl]morpholine] | 20 to 3160 nM
≤ 0.2 nM | CC[C@H]1COCCN1c1cc(CS(=O)(=O)NC)nc(-c2ccc3[nH]c(C)cc3n2)n1 [Example 11, 1-{6-[(3S)-3-ethylmorpholin-4-yl]-2-{2-methyl-1H-pyrrolo[3,2-b]pyridin-5-yl}pyrimidin-4-yl}-N-methylmethanesulfonamide] | 20 nM
